13 compounds from patent publication US11963975B2, “Therapeutic targets for facioscapulohumeral muscular dystrophy” (University of Massachusetts, priority 2016, dated 2024) can be followed below.

Common to all, as to format: cell-based, human
Series [1] deals with skeletal myocytes from an FSHD1 patient (05Abic). As to the kind of experiment: shRNA knockdown screen in terminally differentiated FSHD myocytes, gene expression by qRT-PCR. To be noted: harvested 4 days after second infection, Mock = 1. The procedure:
A screen to identify genes involved in DUX4 expression (e.g., when the expression of these genes is reduced in FSHD muscle cells, DUX4 expression also decreases) was performed. Briefly, primary differentiated myocytes derived from subjects having FSHD were treated with shRNA targeting candidate genes and the expression level of pathogenic DUX4-fl mRNA was quantified. The expression levels of other myogenic regulators (e.g., Myogenin, MyoD, MyHD) and other targets (e.g., FRG1, UTRN, and 18S) were also quantified to assess indirect effects of DUX4 knockdown. A sample screening protocol is shown below:
• 1. Expand low passage primary FSHD myoblasts. • 2. Plate into 6-well plates. • 3. Allow cells to reach confluence and differentiate (approximately 48 hours). • 4. Infect cells with lentiviral shRNA construct and incubate for 24 hours. • 5. Re-infect cells with lentiviral shRNA construct. • 6. Harvest cells 4 days after second infection. • 7. Extract RNA from cells and assay for expression level of DUX4-fl and other genes of interest.
(§1) Myogenic cultures derived from biceps muscles of unrelated FSHD1 patients (05Abic, 17Abic, and 18Abic) were grown in Ham's F-10 medium supplemented with 20% FBS (Hyclone), 0.5% chick embryo extract, 1% antibiotics & antimycotics, and 1.2 mM CaCl2. 293T packaging cells were grown in DMEM+10% FBS+0.1% […]. For shRNA knockdown experiments, 293T cells were transfected with lentiviral packaging plasmid (pCMV-dR8.91), envelope plasmid (VSV-G), and SIGMA MISSION shRNA expression plasmids. Lentiviral supernatants were harvested, aliquoted, and frozen at −80° C. FSHD1 skeletal myoblasts were seeded in collagen-coated 6-well plates (for gene expression analysis) or 10-cm plates (for ChIP) and grown to confluence, then allowed to self-differentiate in growth medium for ˜48 h. Cells were subjected to two rounds of infection. Briefly, lentiviral supernatants+8 μg/ml polybrene were added to cultures and the plates were incubated for 15 min at 37° C., then wrapped well with parafilm before centrifuging for 30 min at 1100 g (32° C.). Following centrifugation, the viral supernatants were replaced with growth medium. Cells were maintained in growth medium and harvested 4 d after the last round of infection. For dCas9-KRAB infections, 293T cells were transfected with lentiviral packaging plasmid (pCMV-dR8.91), envelope plasmid (VSV-G), and either dCas9-KRAB expression plasmid (#50919) or sgRNA expression plasmid using the TransIT-LT1 transfection reagent. Lentiviral supernatants were harvested at […] from 72-108 h post-transfection. FSHD1 skeletal myoblasts were seeded in collagen-coated 6-well plates and grown to ˜80% confluency, then subjected to four serial infections over two days. Cells were allowed to recover for ˜8 h in growth medium prior to the next round of infection. Following the last infection, these self-differentiated cultures were maintained in growth medium for 72 h prior to harvesting.
Total RNAs were extracted using TRIzol (Invitrogen) and purified using the RNeasy Mini kit (Qiagen) after on-column DNase I digestion. Total RNA (2 μg) was used for cDNA synthesis using Superscript III Reverse Transcriptase (Invitrogen), and 200 ng of cDNA were used for qPCR analysis.
The D4Z4 macrosatellite array that encodes DUX4 is normally under strong epigenetic repression in adult somatic cells. […] Thirty-six candidate activators of DUX4 fl were investigated as potential drug targets (Table 3). These candidates include transcriptional regulators, chromatin remodelers, and histone modifying enzymes. For the initial screen, skeletal myocytes from an FSHD1 patient (05Abic) which express consistent and relatively high levels of DUX4 fl when terminally differentiated were used. Using lentivirus-encoded shRNAs, each candidate was knocked down in terminally differentiated cultures, then cells were harvested four days later and assessed for expression of DUX4 fl and other genes.

Series [2] has as its system FSHD myocytes (05Abic, 18Abic, and 17Abic). As to the kind of experiment: shRNA knockdown across FSHD cohorts, DUX4-fl by qRT-PCR. As to conditions: FIG. 11F.
Text: FIGS. 11A-11F show shRNA knockdown of epigenetic regulators reduces expression of DUX4-fl in FSHD myocytes. Differentiated FSHD myocytes were infected in two serial rounds with shRNAs to ASH1L (FIG. 11A), BAZ1A (FIG. 11B), BRD2 (FIG. 11C), KDM4C (FIG. 11D), SMARCA5 (FIG. 11E), or a scrambled control. Four days later, cells were harvested for analysis of the full-length DUX4 isoform (DUX4-fl), Myogenin (Myog), MyoD, Myosin heavy chain 1 (MyHC), FRG1, Utrophin (Utr), and 18S gene expression by qRT-PCR. […] In all panels, relative mRNA expression for mock or control-infected cells is set to 1. Data are plotted as the mean+SD value of technical replicates.
as §1
Total RNAs were extracted using TRIzol (Invitrogen) and purified using the RNeasy Mini kit (Qiagen) after on-column DNase I digestion. […]
Background: Real-time PCR tracks product formation cycle by cycle.

Series [3] relates to primary myoblasts isolated from FSHD1-affected and FSHD-asymptomatic patients. As to the kind of experiment: small molecule treatment of primary myoblasts, DUX4 expression. As to conditions: alone, or in combination; FIG. 15. An excerpt:
Trichostatin A (TSA) is a histone deacetylase inhibitor, 5-aza-2′-deoxycytidine (5′ADC) is a DNA methylation inhibitor and chaetocin (CH) is a histone methyltransferase inhibitor.

Where “and” joins values, the source holds several entries; their conditions need not be identical. Equal values may be shown once.

Consider “PJ12: shRNA targeting BRD2; SEQ ID NO: 11 (guide CCGGGCCCTCTTTACGTGATTCAAACTCGAGTTTGAATCACGTAAAGAGGGCTTTTT)”, for which, in series [1], the “18S relative gene expression” value was determined as 1.099, the “D4-fl relative gene expression” value was found to be 0.1127, the “FRG1 relative gene expression” value was found to be 1.178 and the “MyHC relative gene expression” value was found to be 0.7927. Besides, in series [1], the “MyoD relative gene expression” value amounted to 0.904, the “Myog relative gene expression” value is on record as 1.088 and the “Utr relative gene expression” value came out at 0.6755.
As for “PJ2: shRNA targeting ASH1L; SEQ ID NO: 5 (guide CCGGCCTGCCAAATACCATAAGAAACTCGAGTTTCTTATGGTATTTGGCAGGTTTTT)”, in series [1], the “18S relative gene expression” value is 1.311, the “D4-fl relative gene expression” value is 0.1371, the “FRG1 relative gene expression” value stood at 1.172 and the “MyHC relative gene expression” value was determined as 0.7221. Also, in series [1], the “MyoD relative gene expression” value was 0.8503, the “Myog relative gene expression” value amounted to 0.8845 and the “Utr relative gene expression” value is given as 0.815.
“PJ152: shRNA targeting BAZ1A; SEQ ID NO: 9 (guide CCGGGCGATGAAGAAGAAGGTCAAACTCGAGTTTGACCTTCTTCTTCATCGCTTTTTG)”: in series [1], the “18S relative gene expression” value turned out to be 1.312, the “D4-fl relative gene expression” value came to 0.1892, the “FRG1 relative gene expression” value turned out to be 0.9047 and the “MyHC relative gene expression” value came out at 0.8503. For the same compound, in series [1], the “MyoD relative gene expression” value was determined as 0.991, the “Myog relative gene expression” value is on record as 1.318 and the “Utr relative gene expression” value amounted to 0.954.
Consider “PJ11: shRNA targeting BRD2; SEQ ID NO: 10 (guide CCGGCCCTTTGCTGTGACACTTCTTCTCGAGAAGAAGTGTCACAGCAAAGGGTTTTT)”, for which, in series [1], the “18S relative gene expression” value stood at 1.112, the “D4-fl relative gene expression” value was 0.124, the “FRG1 relative gene expression” value was 1.25 and the “MyHC relative gene expression” value worked out at 0.7342. For the same compound, in series [1], the “MyoD relative gene expression” value worked out at 0.9277, the “Myog relative gene expression” value was determined as 1.026 and the “Utr relative gene expression” value worked out at 0.6067. In addition, the “DUX4-fl expression (in words)” value in series [2] is “reduce DUX4-fl expression”.
As to `CC(/C=C/C(=O)NO)=C\[C@@H](C)C(=O)c1ccc(N(C)C)cc1` [Trichostatin A], in series [3], the “DUX4 expression (in words)” value is given as “affect DUX4 expression”.
In the case of “PJ195: shRNA targeting SMARCA5; SEQ ID NO: 7 (guide CCGGGTTCTTTAATTTACGGGTCTTCTCGAGAAGACCCGTAAATTAAAGAACTTTTT)”, in series [1], the “18S relative gene expression” value was found to be 0.9905, the “D4-fl relative gene expression” value is on record as 0.168, the “FRG1 relative gene expression” value was determined as 0.9865 and the “MyHC relative gene expression” value came to 0.7803. Further, in series [1], the “MyoD relative gene expression” value worked out at 0.8981, the “Myog relative gene expression” value is on record as 0.8003 and the “Utr relative gene expression” value was found to be 1.024.
On to “PJ1: shRNA targeting ASH1L; SEQ ID NO: 4 (guide CCGGCGACATAAACTTGACATCTTTCTCGAGAAAGATGTCAAGTTTATGTCGTTTTT)”, for which, in series [1], the “18S relative gene expression” value was determined as 1.372, the “D4-fl relative gene expression” value was 0.3399, the “FRG1 relative gene expression” value came to 1.051 and the “MyHC relative gene expression” value was 1.066. Further, in series [1], the “MyoD relative gene expression” value stood at 0.7238, the “Myog relative gene expression” value was determined as 1.795 and the “Utr relative gene expression” value came out at 0.6994. Moreover, in series [2], the “DUX4-fl expression (in words)” value is “reduce DUX4-fl expression”.
For “PJ75: shRNA targeting KDM4C; SEQ ID NO: 3 (CCGGGCCCAAGTCTTGGTATGCTATCTCGAGATAGCATACCAAGACTTGGGCTTTTT)”, in series [1], the “18S relative gene expression” value is listed as 0.9781, the “D4-fl relative gene expression” value was found to be 0.1812, the “FRG1 relative gene expression” value stood at 0.7766 and the “MyHC relative gene expression” value was 0.9826. Moreover, in series [1], the “MyoD relative gene expression” value is reported as 1.048, the “Myog relative gene expression” value worked out at 1.318 and the “Utr relative gene expression” value stood at 1.018.
In the case of “PJ3: shRNA targeting ASH1L; SEQ ID NO: 6 (guide CCGGCGTACTTTGTTTATCCCAGAACTCGAGTTCTGGGATAAACAAAGTACGTTTTT)”, in series [1], the “18S relative gene expression” value turned out to be 1.185, the “D4-fl relative gene expression” value is recorded as 0.2434, the “FRG1 relative gene expression” value is given as 1.141 and the “MyHC relative gene expression” value is reported as 1.341. In series [1], the “MyoD relative gene expression” value amounted to 0.9895, the “Myog relative gene expression” value is listed as 0.7218 and the “Utr relative gene expression” value is on record as 1.128.
Take `Nc1ncn([C@H]2C[C@H](O)[C@@H](CO)O2)c(=O)n1` [5-aza-2′-deoxycytidine]: the “DUX4 expression (in words)” value in series [3] is “affect DUX4 expression”.
As for “PJ73: shRNA targeting KDM4C; SEQ ID NO: 1 (guide CCGGGCCTCTGACATGCGATTTGAACTCGAGTTCAAATCGCATGTCAGAGGCTTTTT)”, in series [1], the “18S relative gene expression” value came to 1.253, the “D4-fl relative gene expression” value amounted to 0.1101, the “FRG1 relative gene expression” value came out at 1.043 and the “MyHC relative gene expression” value turned out to be 0.7968. Also, in series [1], the “MyoD relative gene expression” value stood at 0.9045, the “Myog relative gene expression” value is given as 1.338 and the “Utr relative gene expression” value stood at 0.6393.
For “PJ196: shRNA targeting SMARCA5; SEQ ID NO: 8 (guide CCGGCCGGGCAAATAGATTCGAGTACTCGAGTACTCGAATCTATTTGCCCGGTTTTT)”, in series [1], the “18S relative gene expression” value was 0.9807 and 1.048; the “D4-fl relative gene expression” value was 0.1085 and 0.1967; the “FRG1 relative gene expression” value is 0.8974 and 0.9209; the “MyHC relative gene expression” value was 0.469 and 0.5926. In series [1], the “MyoD relative gene expression” value is 0.722 and 0.9103; the “Myog relative gene expression” value was 0.9247 and 0.9293; the “Utr relative gene expression” value is 0.8261 and 1.231. Moreover, in series [2], the “DUX4-fl expression (in words)” value is “reduce DUX4-fl expression”.
Regarding “PJ74: shRNA targeting KDM4C; SEQ ID NO: 2 (guide CCGGGCAGAGAGTAATGGTGTGTTACTCGAGTAACACACCATTACTCTCTGCTTTTT)”, in series [1], the “18S relative gene expression” value is 1.129, the “D4-fl relative gene expression” value was 0.08801, the “FRG1 relative gene expression” value was determined as 1.211 and the “MyHC relative gene expression” value amounted to 0.7642. In series [1], the “MyoD relative gene expression” value is on record as 0.7621, the “Myog relative gene expression” value turned out to be 1.81 and the “Utr relative gene expression” value turned out to be 0.7121. Besides, the “DUX4-fl expression (in words)” value in series [2] is reported as “reduce DUX4-fl expression”.
